The term IC50 denotes the concentration that inhibits the measured activity by half.

Some results are limits rather than exact numbers.

The target of data set [1] is human carboanhydrase I (Homo sapiens, UniProt P00915). Kind of data set: Carboanhydrase inhibition, photometric, nitrophenyl acetate conversion (CA I). The format is biochemical. Conditions: read-out: CAI IC50. The text has this:
(§1) b) Carboanhydrase Inhibition—Test Principle and Experimental Description:
(§2) Photometric determination of the inhibition of human carboanhydrase I or II by sulphonamides or sulphamates on microtitre plates with the aid of the enzymatic conversion of nitrophenyl acetate with a colour change from colourless to yellow.

In data set [2] the target is human carboanhydrase II (Homo sapiens, UniProt P00918). Kind of data set: Carboanhydrase inhibition, photometric, nitrophenyl acetate conversion (CA II). In kind it is biochemical. Conditions: read-out: CAII IC50.
Source text: as §1, §2

The nature of data set [3]: Blood-plasma concentration ratio in rat blood. The format is in vitro ADME. Particulars: freshly obtained heparinized whole blood. As for the experimental part: (§3) a) Blood-plasma Concentration Ratio—Test Principle and Experimental Description:
(§4) The SO2—NH2 group of the substances according to the invention can lead to a concentration in erythrocytes as a result of binding to carboanhydrases.
(§5) Freshly obtained, heparinized blood from a rat is treated with a defined amount of active compound. The active compound concentration in the plasma obtained therefrom is measured against a calibration curve of spiked (with a known active compound concentration) plasma. The blood-plasma ratio is calculated from the measured concentration and the theoretical concentration.
(§6) In contrast to the results published in WO 01/91797, the concentration ratios of the compounds according to the invention between erythrocytes and plasma are not in a range from 10-1000:1, but in the range <10:1.

Data set [4] can be described thus: Blood/plasma ratio in human erythrocytes. The format is in vitro ADME. Conditions: human erythrocytes (blood). Here is the method: as §3, §4, §5, §6

human carboanhydrase I, sequence (P00915 whole entry): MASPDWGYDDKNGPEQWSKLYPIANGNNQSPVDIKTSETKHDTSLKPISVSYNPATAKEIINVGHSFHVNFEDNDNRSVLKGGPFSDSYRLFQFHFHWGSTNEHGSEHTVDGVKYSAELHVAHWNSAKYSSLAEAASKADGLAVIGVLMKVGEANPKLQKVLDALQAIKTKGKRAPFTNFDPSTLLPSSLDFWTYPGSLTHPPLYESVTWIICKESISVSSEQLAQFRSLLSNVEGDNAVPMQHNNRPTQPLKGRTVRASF

`C=C[C@]12CC[C@]3(C)C[C@H](OC(=O)c4cccc(S(N)(=O)=O)c4)C[C@H]3[C@@H]1CCc1cc(O)ccc12` [3-Hydroxy-9α-vinyloestra-1,3,5(10)-trien-16α-yl 3′-sulphamoylbenzoate]: the IC50 was 3400 nM in data set [1] and 490 nM in data set [2].
With `C=C[C@]12CC[C@]3(C)[C@@H](F)[C@H](OC(=O)c4cccc(S(N)(=O)=O)c4)C[C@H]3[C@@H]1CCc1cc(O)ccc12` [17β-Fluoro-3-hydroxy-9α-vinyloestra-1,3,5(10)-trien-16α-yl 3′-sulphamoylbenzoate], the IC50 in data set [1] is 3700 nM; in data set [2], 720 nM. In addition, the figures for the blood plasma ratio in data set [3] and in data set [4] were about 3.7 and 1.2, respectively.
On to `C=C[C@]12CC[C@]3(C)[C@@H](F)[C@H](OC(=O)c4ccccc4)C[C@H]3[C@@H]1CCc1cc(O)ccc12` [17β-Fluoro-3-hydroxy-9α-vinyloestra-1,3,5(10)-trien-16α-yl benzoate, reference compound], for which the IC50 in data set [1] and in data set [2] was over 10000 nM each time.
Take `C[C@]12CC[C@@H]3c4ccc(OS(N)(=O)=O)cc4CC[C@H]3[C@@H]1CC[C@@H]2O` [Oestradiol 3-sulphamate, reference compound]: the IC50 in data set [1] was found to be 157 ± 10.6 nM.

The values are drawn from patent US20070123500A1, “Prodrugs of ERbeta-selective substances, processes for their preparation and pharmaceutical compositions comprising these compounds” (priority 2005, published 2007).
